pIC50: −log10 of the molar value. Read-outs that look alike come from different tables or passages of the source.
Tested on: IL-1β production in PMA-differentiated THP-1 cells
Assay: IL-1β production in PMA-differentiated THP-1 cells stimulated with gramicidin (hTHP-1 assay containing 2% fetal bovine serum)
Assay type: cell-based, human
Settings: 2% fetal bovine serum, read-out: hTHP-1 IC50 (Average IC50 of compounds in hTHP-1 assay)
Outline: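 IL-1β release was read by HTRF on supernatants of 50,000 PMA-primed (20 ng/ml, 16-18 h) THP-1 cells/well in 2% FBS medium. Cells saw compound for 1 h (11-point titration from 100 μM, 0.37% DMSO) before a 2 h gramicidin (5 μM) challenge.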

[1] = Homo sapiens, THP-1, Table B1, class symbols
[2] = Homo sapiens, THP-1, Table B1, cells printed as numeric bound

| SMILES | pIC50 [1] | pIC50 [2] | other results |
| --- | --- | --- | --- |
| CC(C)c1cc(C#CC2CCCCC2)cc(C(C)C)c1CC(=O)N=S(N)(=O)c1cc(C(C)(C)O)n(-c2ccccc2)n1 (single isomer, unassigned) [Example 280, (S) or (R)-N-(amino (5-(2-hydroxypropan-2-yl)-1-phenyl-1H-pyrazol-3-yl)(oxo)-λ^6-sulfaneylidene)-2-(4-(cyclohexylethynyl)-2,6-diisopropylphenyl) acetamide] |  | < 4.52 |  |
| CC(C)c1cc(CCC2CCCCC2)cc(C(C)C)c1CC(=O)N=S(N)(=O)c1cc(C(C)(C)O)n(-c2ccccc2)n1 (single isomer, unassigned) [Example 282, (S) or (R)-N-(amino(5-(2-hydroxypropan-2-yl)-1-phenyl-1H-pyrazol-3-yl)(oxo)-λ^6-sulfaneylidene)-2-(4-(2-cyclohexylethyl)-2,6-diisopropylphenyl) acetamide] |  | < 4.52 |  |
| CC(C)c1cc(C(=O)CC2CCCCC2)cc(C(C)C)c1CC(=O)N=S(N)(=O)c1cc(C(C)(C)O)n(-c2ccccc2)n1 (single isomer, unassigned) [Example 286, (S) or (R)-N-(amino (5-(2-hydroxypropan-2-yl)-1-phenyl-1H-pyrazol-3-yl)(oxo)-λ^6-sulfaneylidene)-2-(4-(2-cyclohexylacetyl)-2,6-diisopropylphenyl) acetamide] |  | < 4.52 |  |
| CC(C)c1cc(COC2CCCC2)cc(C(C)C)c1CC(=O)N=S(N)(=O)c1cnc(C(C)(C)O)s1 (single isomer, unassigned) [Example 288, (S) or (R)-N-(amino(2-(2-hydroxypropan-2-yl)thiazol-5-yl)(oxo)-λ^6-sulfaneylidene)-2-(4-((cyclopentyloxy)methyl)-2,6-diisopropylphenyl) acetamide] |  | < 4.52 |  |
| CCc1c2c(cc(C(C)C)c1CC(=O)N=S(N)(=O)c1cnc(C(C)(C)O)s1)COC2 (single isomer, unassigned) [Example 290, (S) or (R)-N-(amino(2-(2-hydroxypropan-2-yl)thiazol-5-yl)(oxo)-λ^6-sulfaneylidene)-2-(4-ethyl-6-isopropyl-1,3-dihydroisobenzofuran-5-yl)acetamide] |  | < 4.52 |  |
| CCc1cc2c(c(C(C)C)c1CC(=O)N=S(N)(=O)c1cnc(C(C)(C)O)s1)COC2 (single isomer, unassigned) [Example 292, (S) or (R)-N-(amino(2-(2-hydroxypropan-2-yl)thiazol-5-yl)(oxo)-λ^6-sulfaneylidene)-2-(6-ethyl-4-isopropyl-1,3-dihydroisobenzofuran-5-yl)acetamide] |  | < 4.52 |  |
| CCc1c2c(cc(C(C)C)c1CC(=O)N=S(N)(=O)c1cc(C(C)(C)O)cs1)COC2 (single isomer, unassigned) [Example 293, (R) or (S)-N-(amino(4-(2-hydroxypropan-2-yl)thiophen-2-yl)(oxo)-λ^6-sulfaneylidene)-2-(4-ethyl-6-isopropyl-1,3-dihydroisobenzofuran-5-yl)acetamide] |  |  | pIC50 (Table B1, class symbols): 6.00 to 6.70 |
| CCc1c2c(cc(C(C)C)c1CC(=O)N=S(N)(=O)c1cc(C(C)(C)O)cs1)COC2 (single isomer, unassigned) [Example 294, (S) or (R)-N-(amino(4-(2-hydroxypropan-2-yl)thiophen-2-yl)(oxo)-λ^6-sulfaneylidene)-2-(4-ethyl-6-isopropyl-1,3-dihydroisobenzofuran-5-yl)acetamide] |  |  | pIC50 (Table B1, class symbols): 4.52 to 5.30 |
| CCc1cc2c(c(C(C)C)c1CC(=O)N=S(N)(=O)c1cc(C(C)(C)O)cs1)COC2 (single isomer, unassigned) [Example 296, (S) or (R)-N-(amino(4-(2-hydroxypropan-2-yl)thiophen-2-yl)(oxo)-λ^6-sulfaneylidene)-2-(6-ethyl-4-isopropyl-1,3-dihydroisobenzofuran-5-yl)acetamide] |  | < 4.52 |  |
| CCc1cc2c(c(C(C)C)c1CC(=O)N=S(N)(=O)c1sc(C(C)(C)O)cc1F)COC2 (single isomer, unassigned) [Example 297, (R) or (S)-N-(amino (3-fluoro-5-(2-hydroxypropan-2-yl)thiophen-2-yl)(oxo)-λ^6-sulfaneylidene)-2-(6-ethyl-4-isopropyl-1,3-dihydroisobenzofuran-5-yl)acetamide] |  |  | pIC50 (Table B1, class symbols): 5.30 to 6.00 |
| CCc1cc2c(c(C(C)C)c1CC(=O)N=S(N)(=O)c1sc(C(C)(C)O)cc1F)COC2 (single isomer, unassigned) [Example 298, (S) or (R)-N-(amino(3-fluoro-5-(2-hydroxypropan-2-yl)thiophen-2-yl)(oxo)-λ^6-sulfaneylidene)-2-(6-ethyl-4-isopropyl-1,3-dihydroisobenzofuran-5-yl)acetamide] |  |  | pIC50 (Table B1, class symbols): 4.52 to 5.30 |
| CCc1c2c(cc(C(C)C)c1CC(=O)N=S(N)(=O)c1sc(C(C)(C)O)cc1F)COC2 (single isomer, unassigned) [Example 299, (S) or (R)-N-(amino (3-fluoro-5-(2-hydroxypropan-2-yl)thiophen-2-yl)(oxo)-λ^6-sulfaneylidene)-2-(4-ethyl-6-isopropyl-1,3-dihydroisobenzofuran-5-yl)acetamide] |  |  | pIC50 (Table B1, class symbols): 4.52 to 5.30 |
| CCc1c2c(cc(C(C)C)c1CC(=O)N=S(N)(=O)c1sc(C(C)(C)O)cc1F)COC2 (single isomer, unassigned) [Example 300, (R) or (S)-N-(amino (3-fluoro-5-(2-hydroxypropan-2-yl)thiophen-2-yl)(oxo)-λ^6-sulfaneylidene)-2-(4-ethyl-6-isopropyl-1,3-dihydroisobenzofuran-5-yl)acetamide] |  |  | pIC50 (Table B1, class symbols): 6.00 to 6.70 |
| CC(C)c1cc2c(c(C(C)C)c1CC(=O)N=S(N)(=O)c1ccc(C(C)(C)O)cc1)COC2 (single isomer, unassigned) [Example 301, (R) or (S)-N-(amino(4-(2-hydroxypropan-2-yl)phenyl)(oxo)-λ^6-sulfaneylidene)-2-(4,6-diisopropyl-1,3-dihydroisobenzofuran-5-yl)acetamide] | 5.30 to 6.00 |  |  |

More lines, main results first:

| pIC50 [1] | pIC50 [2] | SMILES | other results |
| --- | --- | --- | --- |
| 5.30 to 6.00 |  | CC(C)c1cc(C#CC2CCCCC2)cc(C(C)C)c1CC(=O)N=S(N)(=O)c1cc(C(C)(C)O)n(-c2ccccc2)n1 (single isomer, unassigned) [Example 279, (R) or (S)-N-(amino(5-(2-hydroxypropan-2-yl)-1-phenyl-1H-pyrazol-3-yl)(oxo)-λ^6-sulfaneylidene)-2-(4-(cyclohexylethynyl)-2,6-diisopropylphenyl) acetamide] |  |
| 4.52 to 5.30 |  | CC(C)c1cc(CCC2CCCCC2)cc(C(C)C)c1CC(=O)N=S(N)(=O)c1cc(C(C)(C)O)n(-c2ccccc2)n1 (single isomer, unassigned) [Example 281, (R) or (S)-N-(amino(5-(2-hydroxypropan-2-yl)-1-phenyl-1H-pyrazol-3-yl)(oxo)-λ^6-sulfaneylidene)-2-(4-(2-cyclohexylethyl)-2,6-diisopropylphenyl) acetamide] |  |
| 6.00 to 6.70 |  | CC(C)c1cc(COC2CCCC2)cc(C(C)C)c1CC(=O)N=S(N)(=O)c1cc(C(C)(C)O)n(-c2ccc(F)cc2)n1 (single isomer, unassigned) [Example 283, (R) or (S)-N-(amino(1-(4-fluorophenyl)-5-(2-hydroxypropan-2-yl)-1H-pyrazol-3-yl)(oxo)-λ^6-sulfaneylidene)-2-(4-((cyclopentyloxy)methyl)-2,6-diisopropylphenyl) acetamide] |  |
|  | < 4.52 | CC(C)c1cc(COC2CCCC2)cc(C(C)C)c1CC(=O)N=S(N)(=O)c1cc(C(C)(C)O)n(-c2ccc(F)cc2)n1 (single isomer, unassigned) [Example 284, (S) or (R)-N-(amino(1-(4-fluorophenyl)-5-(2-hydroxypropan-2-yl)-1H-pyrazol-3-yl)(oxo)-λ^6-sulfaneylidene)-2-(4-((cyclopentyloxy)methyl)-2,6-diisopropylphenyl) acetamide] |  |
| 5.30 to 6.00 |  | CC(C)c1cc(C(=O)CC2CCCCC2)cc(C(C)C)c1CC(=O)N=S(N)(=O)c1cc(C(C)(C)O)n(-c2ccccc2)n1 (single isomer, unassigned) [Example 285, (R) or (S)-N-(amino(5-(2-hydroxypropan-2-yl)-1-phenyl-1H-pyrazol-3-yl)(oxo)-λ^6-sulfaneylidene)-2-(4-(2-cyclohexylacetyl)-2,6-diisopropylphenyl) acetamide] |  |
| 6.70 to 7.40 |  | CC(C)c1cc(COC2CCCC2)cc(C(C)C)c1CC(=O)N=S(N)(=O)c1cnc(C(C)(C)O)s1 (single isomer, unassigned) [Example 287, (R) or (S)-N-(amino(2-(2-hydroxypropan-2-yl)thiazol-5-yl)(oxo)-λ^6-sulfaneylidene)-2-(4-((cyclopentyloxy)methyl)-2,6-diisopropylphenyl) acetamide] |  |
| 4.52 to 5.30 |  | CCc1c2c(cc(C(C)C)c1CC(=O)N=S(N)(=O)c1cnc(C(C)(C)O)s1)COC2 (single isomer, unassigned) [Example 289, (R) or (S)-N-(amino(2-(2-hydroxypropan-2-yl)thiazol-5-yl)(oxo)-λ^6-sulfaneylidene)-2-(4-ethyl-6-isopropyl-1,3-dihydroisobenzofuran-5-yl)acetamide] |  |
| 4.52 to 5.30 |  | CCc1cc2c(c(C(C)C)c1CC(=O)N=S(N)(=O)c1cnc(C(C)(C)O)s1)COC2 (single isomer, unassigned) [Example 291, (R) or (S)-N-(amino(2-(2-hydroxypropan-2-yl)thiazol-5-yl)(oxo)-λ^6-sulfaneylidene)-2-(6-ethyl-4-isopropyl-1,3-dihydroisobenzofuran-5-yl)acetamide] |  |
| 6.00 to 6.70 |  | CCc1cc2c(c(C(C)C)c1CC(=O)N=S(N)(=O)c1cc(C(C)(C)O)cs1)COC2 (single isomer, unassigned) [Example 295, (R) or (S)-N-(amino(4-(2-hydroxypropan-2-yl)thiophen-2-yl)(oxo)-λ^6-sulfaneylidene)-2-(6-ethyl-4-isopropyl-1,3-dihydroisobenzofuran-5-yl)acetamide] |  |

— patent US20230059136A1, “THE COMPOUNDS AND COMPOSITIONS FOR TREATING CONDITIONS ASSOCIATED WITH NLRP ACTIVITY” (Novartis AG, priority 2018, published 2023)
